According to patent publication US10757937B2, “Sulfonamides that activate ABA receptors” (The Regents of the University of California, priority 2014, dated 2020):
Where two headings read alike, the source gives them in different places.

What was measured:
[1] = molecular target: T1, PYL4 (Arabidopsis thaliana, UniProt O80920); assay: receptor-mediated PP2C (HAB1) inhibition in vitro assay; format: biochemical; settings: for remaining activity at 25 µM: compound at 25 μM, control without agonist = 100%; for remaining activity at 50 µM: 50 uM of the test compound
T1 construct: 6X-His; made in house; host or cells: E. coli BL21[DE3]pLysS
T1 sequence (O80920 1-207): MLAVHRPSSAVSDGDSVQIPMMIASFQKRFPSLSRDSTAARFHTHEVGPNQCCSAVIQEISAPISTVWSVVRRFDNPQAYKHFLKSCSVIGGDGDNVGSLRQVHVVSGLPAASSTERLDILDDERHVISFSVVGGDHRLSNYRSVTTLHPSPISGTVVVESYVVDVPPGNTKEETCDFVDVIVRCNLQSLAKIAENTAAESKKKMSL
T1 sequence (Q9CAJ0 23-511 partner): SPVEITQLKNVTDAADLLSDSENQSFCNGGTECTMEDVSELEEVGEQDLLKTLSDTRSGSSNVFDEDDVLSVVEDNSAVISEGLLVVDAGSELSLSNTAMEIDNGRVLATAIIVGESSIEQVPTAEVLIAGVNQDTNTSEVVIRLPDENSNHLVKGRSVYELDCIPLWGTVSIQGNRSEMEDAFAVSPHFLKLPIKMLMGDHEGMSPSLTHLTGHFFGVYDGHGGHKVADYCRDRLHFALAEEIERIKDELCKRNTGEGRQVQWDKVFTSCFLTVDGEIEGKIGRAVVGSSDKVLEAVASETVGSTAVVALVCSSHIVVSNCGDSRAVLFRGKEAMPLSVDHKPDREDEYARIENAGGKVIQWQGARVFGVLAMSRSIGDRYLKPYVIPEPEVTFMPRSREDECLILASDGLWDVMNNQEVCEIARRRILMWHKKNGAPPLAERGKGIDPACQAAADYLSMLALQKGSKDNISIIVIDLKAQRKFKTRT
In short: (§1)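 Fluorogenic readout: 4-methylumbelliferyl-phosphate hydrolysis by 50 nM GST-HAB1 plus 2:1 His-receptor; Tris-OAc pH 7.9, NaCl, 1 mM MnCl2, β-ME. Compounds at 25 μM or 50 uM single dose; IC50 from dose curves for selected compounds.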

[2] = molecular target: T2, PYL2 (Arabidopsis thaliana, UniProt O80992); assay: as above; format: biochemical; settings: for remaining activity at 50 µM: 50 uM of the test compound
T2 construct: 6X-His; made in house; host or cells: E. coli BL21[DE3]pLysS
T2 sequence (O80992 1-190): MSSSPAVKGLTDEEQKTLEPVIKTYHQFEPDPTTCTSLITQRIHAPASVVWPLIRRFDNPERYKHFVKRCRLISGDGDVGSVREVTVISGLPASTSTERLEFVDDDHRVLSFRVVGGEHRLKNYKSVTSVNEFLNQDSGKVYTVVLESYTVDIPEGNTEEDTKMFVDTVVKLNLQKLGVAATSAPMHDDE
T2 sequence (Q9CAJ0 23-511 partner): T1 sequence (Q9CAJ0 23-511 partner)
In short: as §1

[3] = system: Arabidopsis seed germination and hypocotyl growth; assay: Arabidopsis seed germination and hypocotyl growth; format: in vivo; settings: for minimal effective concentration: Arabidopsis thaliana; for Hypocotyl Growth Inhibition / Germination Inhibition: Germination Inhibition II, tested at 10 and 50 uM; for Hypocotyl Growth Inhibition: lowest concentration that inhibited hypocotyl growth in wells where seeds germinated; for Germination Inhibition: lowest of the two concentrations that inhibited
In short: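 Wild-type seeds germinated on ½× Murashige and Skoog medium with compound at 10 and 50 uM, or in a later series at 1, 5, 10, 25 and 50 uM. Reported value is the lowest tested concentration that inhibited germination or hypocotyl growth in wells where seeds germinated.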

[4] = molecular target: T3, PYR1 (Arabidopsis thaliana, UniProt O49686); assay: receptor-mediated PP2C (HAB1) inhibition in vitro assay; format: biochemical; settings: for remaining activity at 50 µM: 50 uM of the test compound
T3 construct: 6X-His; made in house; host or cells: E. coli BL21[DE3]pLysS
T3 sequence (O49686 1-191): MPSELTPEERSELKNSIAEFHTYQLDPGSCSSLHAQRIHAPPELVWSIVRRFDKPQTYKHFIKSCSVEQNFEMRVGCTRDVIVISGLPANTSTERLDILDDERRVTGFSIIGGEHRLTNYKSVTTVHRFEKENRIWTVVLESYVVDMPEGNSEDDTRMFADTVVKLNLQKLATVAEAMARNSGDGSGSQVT
T3 sequence (Q9CAJ0 23-511 partner): T1 sequence (Q9CAJ0 23-511 partner)
In short: as §1

[5] = Table VII, read-out: PP2C Dose Curves PYL2 (IC50)
[6] = Table VIII, tested at 10 or 50 μM, lowest inhibiting concentration, − = none, read-out: Hypocotyl Growth Inhibition
[7] = Table XII-B, calculated from dose curves, read-out: PP2C Activity (IC50 in uM) PYL4
[8] = Table XII-B, calculated from dose curves, read-out: PP2C Activity (IC50 in uM) PYL2
[9] = Table XII-B, calculated from dose curves, read-out: PP2C Activity (IC50 in uM) PYR1
[10] = Table VIII, tested at 10 or 50 μM, ABA at 1 μM, lowest inhibiting concentration, − = none, read-out: Germination Inhibition
[11] = Table VII, read-out: PP2C Dose Curves PYL4 (IC50)

Row | remaining activity at 25 µM [1] [%] | SMILES | minimal effective concentration [3, 6] [µM] | Hypocotyl Growth Inhibition ([3]; − = none) [µM] | minimal effective concentration [3, 10] [µM] | Germination Inhibition ([3]; − = none) [µM] | further results
1 | 89 | Cc1ccccc1C1(C(=O)NS(=O)(=O)Cc2ccc(C#N)cc2)CC1 [Compound 44] | 50 | 50 |  |  | IC50 [2, 5]: > 50 µM
2 | 94 | N#Cc1ccc(CS(=O)(=O)NC(=O)C2(c3ccccc3F)CCCC2)cc1 [Compound 25] | 10 | 10 | 50 | 50 | 
3 | 91 | CC(C)(C(=O)NS(=O)(=O)Cc1ccc(C#N)cc1)c1cccc(C#N)c1 [Compound 18] |  |  |  |  | IC50 [1, 11]: > 50 µM; IC50 [2, 5]: > 50 µM
4 | 92 | N#Cc1ccc(CS(=O)(=O)NC(=O)C2(c3ccc(F)cc3)CCC2)cc1 [Compound 32] | 10 | 10 | 50 | 50 | 
5 | 98 | CC(C)(C(=O)NS(=O)(=O)Cc1ccc(C#N)cc1)c1ccc(F)cc1 [Compound 13] | 10 |  | 10 | 10 | IC50 [2, 5]: > 50 µM; minimal effective concentration ([3]; Germination Effects III, tested at 1, 5, 10, 25 and 50 uM, lowest concentration inhibiting hypocotyl growth, — = none, read-out: Growth Inhibition): 5 µM; minimal effective concentration ([3]; Germination Effects III, tested at 1, 5, 10, 25 and 50 uM, lowest inhibiting concentration, — = none, read-out: Germination Inhibition): 10 µM
6 | 99 | N#Cc1ccc(CS(=O)(=O)NC(=O)C2(c3cccc(F)c3)CCCC2)cc1 [Compound 26] | 10 | 10 | 50 | 50 | 
7 | 90 | CC(C)(C(=O)NS(=O)(=O)Cc1ccc(C#N)cc1)c1ccc(Cl)c(Cl)c1 [Compound 7] | 10 | 10 | 50 | 50 | IC50 [2, 5]: > 50 µM
8 | 95 | Cc1cccc(C2(C(=O)NS(=O)(=O)Cc3ccc(C#N)cc3)CCCC2)c1 [Compound 43] | 10 | 10 | 50 | 50 | 
9 | 94 | N#Cc1ccc(CS(=O)(=O)NC(=O)C2(c3ccc(F)cc3)CC2)cc1 [Compound 35] | 10 | 10 |  |  | 
10 | 90 | CC(C)(C(=O)NS(=O)(=O)Cc1ccc(C#N)cc1)c1ccc(Cl)cc1 [Compound 6] | 10 | 10 | 50 | 50 | IC50 [2, 5]: > 50 µM
11 | 93 | N#Cc1ccc(CS(=O)(=O)NC(=O)C2(c3ccc(F)cc3)CCCCC2)cc1 [Compound 51] |  |  | 10 | 10 | 
12 | 88 | COc1ccccc1C1(C(=O)NS(=O)(=O)Cc2ccc(C#N)cc2)CCC1 [Compound 42] | 10 | 10 | 50 | 50 | 
13 | 96 | N#Cc1ccc(CS(=O)(=O)NC(=O)C2(c3ccccc3)CCC2)cc1 [Compound 29] | 10 | 10 | 50 | 50 | 

The remaining lines, values behind:

Row | SMILES | remaining activity at 25 µM [1] [%] | minimal effective concentration [3, 6] [µM] | Hypocotyl Growth Inhibition ([3]; − = none) [µM] | minimal effective concentration [3, 10] [µM] | Germination Inhibition ([3]; − = none) [µM] | further results
14 | O=C(NS(=O)(=O)Cc1ccc(F)cc1)C1(c2ccccc2)CCCCC1 [Compound 64] |  |  |  |  |  | remaining activity at 50 µM [1]: 105%; IC50 [1, 7]: > 50 µM; remaining activity at 50 µM [2]: 107%; IC50 [2, 8]: > 50 µM; remaining activity at 50 µM [4]: 98.4%; IC50 [4, 9]: > 50 µM
15 | N#Cc1ccc(CS(=O)(=O)NC(=O)C(c2ccc(F)cc2)c2ccc(F)cc2)cc1 [Compound 72, N-[(4-Cyanophenyl)methanesulfonyl]-2,2-bis(4-fluorophenyl)acetamide] |  |  |  |  |  | remaining activity at 50 µM [1]: 90.1%; IC50 [1, 7]: > 50 µM; remaining activity at 50 µM [2]: 100%; IC50 [2, 8]: > 50 µM; remaining activity at 50 µM [4]: 93.9%; IC50 [4, 9]: > 50 µM
16 | N#Cc1ccc(CS(=O)(=O)NC(=O)C2(c3ccc(Br)cc3)CC2)cc1 [Compound 30] | 90 | 50 | 50 |  |  | IC50 [2, 5]: > 50 µM
17 | CC(C)(C(=O)NS(=O)(=O)Cc1ccc([N+](=O)[O-])cc1)c1ccccc1 [Compound 3] | 90 | 10 | 10 | 50 | 50 | 
18 | N#Cc1ccc(CS(=O)(=O)NC(=O)C2(c3cccc(C#N)c3)CC2)cc1 [Compound 50] | 67 |  |  |  |  | IC50 [1, 11]: > 50 µM; IC50 [2, 5]: 54.7 µM
19 | CC1=CC(=O)CC(C)(C)[C@@]1(O)/C=C/C(C)=C\C(=O)O [ABA, Abscisic acid, reference compound] |  |  |  |  |  | PP2C Activity PYL4 ([1]; ABA (10 μM)): 10.2; PP2C Activity PYL2 ([2]; ABA (10 μM)): 6.1; PP2C Activity PYR1 ([4]; ABA (10 μM)): 6.0
20 | N#Cc1ccc(CS(=O)(=O)NC(=O)C(C2CCCCC2)C2CCCCC2)cc1 [Compound 73, N-[(4-Cyanophenyl)methanesulfonyl]-2,2-cyclohexylacetamide] |  |  |  |  |  | remaining activity at 50 µM [1]: 98.2%; IC50 [1, 7]: > 50 µM; remaining activity at 50 µM [2]: 93.8%; IC50 [2, 8]: > 50 µM; remaining activity at 50 µM [4]: 91.6%; IC50 [4, 9]: > 50 µM
21 | CC(C)(C(=O)NS(=O)(=O)Cc1ccc(C#N)cc1)c1ccccc1 [Compound 23] |  | 10 | 10 | 50 | 50 | 
22 | O=C(NS(=O)(=O)Cc1ccc([N+](=O)[O-])cc1)C1(c2ccccc2)CCCCC1 [Compound 63] |  |  |  |  |  | remaining activity at 50 µM [1]: 103%; IC50 [1, 7]: > 50 µM; remaining activity at 50 µM [2]: 115%; IC50 [2, 8]: > 50 µM; remaining activity at 50 µM [4]: 101%; IC50 [4, 9]: > 50 µM
23 | N#Cc1ccc(CS(=O)(=O)NC(=O)C2(c3ccc(F)cc3)CCCC2)cc1 [Compound 24] | 92 |  |  | 10 | 10 | IC50 [1, 11]: > 50 µM; IC50 ([4]; Table VII, read-out: PP2C Dose Curves PYR1 (IC50)): > 50 µM
24 | N#Cc1ccc(CS(=O)(=O)NC(=O)C(c2ccccc2)c2ccccc2)cc1 [Compound 71, N-[(4-Cyanophenyl)methanesulfonyl]-2,2-diphenylacetamide] |  |  |  |  |  | remaining activity at 50 µM [1]: 93.2%; IC50 [1, 7]: > 50 µM; remaining activity at 50 µM [2]: 102%; IC50 [2, 8]: > 50 µM; remaining activity at 50 µM [4]: 97.9%; IC50 [4, 9]: > 50 µM
